Data published in the CheMixHub viscosity set.
± gives the uncertainty stated by the source.

Assay: xn = mol fraction of the nth substance listed

C=C(C)C(=O)OC + COCCO
viscosity [mPa·s], 101.3 kPa
Details | 298.15 K | 308.15 K
x1 = 0.0557 | 1.449 ± 0.009 | 1.149 ± 0.008
x1 = 0.1541 | 1.237 ± 0.008 | 1.01 ± 0.007
x1 = 0.2554 | 1.068 ± 0.007 | 0.892 ± 0.006
x1 = 0.3538 | 0.941 ± 0.006 | 0.799 ± 0.006
x1 = 0.4561 | 0.836 ± 0.006 | 0.72 ± 0.005
x1 = 0.4992 | 0.799 ± 0.005 | 0.691 ± 0.005
x1 = 0.553 | 0.759 ± 0.005 | 0.658 ± 0.005
x1 = 0.6543 | 0.696 ± 0.005 | 0.606 ± 0.004
x1 = 0.7542 | 0.65 ± 0.005 | 0.564 ± 0.004
x1 = 0.8539 | 0.616 ± 0.004 | 0.529 ± 0.004
x1 = 0.9543 | 0.592 ± 0.004 | 0.502 ± 0.004

CCCCC/C=C\C/C=C\CCCCCCCC(=O)OCC(COC(=O)CCCCCCC/C=C\C/C=C\CCCCC)OC(=O)CCCCCCC/C=C\C/C=C\CCCCC + Cc1ccc(C)cc1
viscosity [mPa·s], 101.3 kPa
Details | x1 = 0.000712 | x1 = 0.001435 | x1 = 0.00217 | x1 = 0.002914 | x1 = 0.003771 | x1 = 0.004524 | x1 = 0.005322 | x1 = 0.006113
298.15 K | 0.6159 ± 0.0044 | 0.6268 ± 0.0045 | 0.638 ± 0.0045 | 0.6494 ± 0.0046 | 0.6627 ± 0.0047 | 0.6742 ± 0.0047 | 0.6861 ± 0.0048 | 0.6966 ± 0.0049
303.15 K | 0.5801 ± 0.0042 | 0.5903 ± 0.0042 | 0.6008 ± 0.0043 | 0.6115 ± 0.0044 | 0.6238 ± 0.0044 | 0.6346 ± 0.0045 | 0.6455 ± 0.0046 | 0.6549 ± 0.0046
308.15 K | 0.5474 ± 0.004 | 0.557 ± 0.004 | 0.5668 ± 0.0041 | 0.5769 ± 0.0042 | 0.5885 ± 0.0042 | 0.5985 ± 0.0043 | 0.6085 ± 0.0043 | 0.617 ± 0.0044
313.15 K | 0.5174 ± 0.0038 | 0.5265 ± 0.0039 | 0.5358 ± 0.0039 | 0.5453 ± 0.004 | 0.5561 ± 0.004 | 0.5654 ± 0.0041 | 0.5747 ± 0.0041 | 0.5824 ± 0.0042
318.15 K | 0.49 ± 0.0036 | 0.4986 ± 0.0037 | 0.5074 ± 0.0037 | 0.5163 ± 0.0038 | 0.5265 ± 0.0039 | 0.5352 ± 0.0039 | 0.5437 ± 0.004 | 0.5507 ± 0.004

ClCCCCCCCl + Cc1cc(C)cc(C)c1
viscosity [mPa·s], 101 kPa
Details | x1 = 0.1049 | x1 = 0.2004 | x1 = 0.2961 | x1 = 0.4028 | x1 = 0.4994 | x1 = 0.5986 | x1 = 0.7 | x1 = 0.7998 | x1 = 0.9005
308.15 K | 0.645 ± 0.014 | 0.714 ± 0.015 | 0.798 ± 0.017 | 0.896 ± 0.019 | 0.995 ± 0.021 | 1.106 ± 0.024 | 1.221 ± 0.026 | 1.352 ± 0.029 | 1.488 ± 0.032
313.15 K | 0.615 ± 0.013 | 0.678 ± 0.015 | 0.752 ± 0.016 | 0.842 ± 0.018 | 0.929 ± 0.02 | 1.031 ± 0.022 | 1.137 ± 0.024 | 1.264 ± 0.027 | 1.394 ± 0.03
318.15 K | 0.586 ± 0.013 | 0.651 ± 0.014 | 0.709 ± 0.015 | 0.795 ± 0.017 | 0.877 ± 0.019 | 0.972 ± 0.021 | 1.071 ± 0.023 | 1.182 ± 0.025 | 1.289 ± 0.028
